Assay: Safety in phase 1/1b study (DLTs, TRAEs, TEAEs; CTCAE v4.03)
Type: in vivo, human
Source text: Safety assessments included evaluation of DLTs, AEs, physical examinations, vital sign measurements, electrocardiogram recordings and laboratory tests.
A DLT was defined as a grade ≥ 4 hematologic abnormality lasting ≥ 4 days; grade 3 thrombocytopenia with clinically significant bleeding; febrile neutropenia; clinically significant grade ≥ 3 non-hematologic AEs not related to underlying malignancy; intolerable grade 2 AEs; or toxicity resulting in an inability to deliver 80% of the dose during the first treatment cycle.
The safety population included all patients who received ≥ 1 dose of sitravatinib. […] The PK evaluable population included all patients with sufficient concentration-time data for PK parameter evaluation. The modified intent-to-treat (mITT) population included all phase 1b patients who received ≥ 1 dose of study drug.

COCCNCc1ccc(-c2cc3nccc(Oc4ccc(NC(=O)C5(C(=O)Nc6ccc(F)cc6)CC5)cc4F)c3s2)nc1 [sitravatinib, Sitravatinib]
AST increased TRAE, any grade (Overall): 36 (18.7) n (%) | AST increased TRAE, grade ≥3 (Overall): 2 (1.0) n (%) | Abdominal pain TEAE, any grade (Overall): 44 (22.8) n (%) | Abdominal pain TEAE, grade ≥3 (Overall): 6 (3.1) n (%) | Abdominal pain TRAE, any grade (Overall): 22 (11.4) n (%) | Abdominal pain TRAE, grade ≥3 (Overall): 0 n (%) | Anemia TEAE, any grade (Overall): 38 (19.7) n (%) | Anemia TEAE, grade ≥3 (Overall): 12 (6.2) n (%) | Any TEAE (Overall): 190 (98.4) n (%) | Any TRAE (Overall): 174 (90.2) n (%) | Asthenia TEAE, any grade (Overall): 20 (10.4) n (%) | Asthenia TEAE, grade ≥3 (Overall): 0 n (%) | Back pain TEAE, any grade (Overall): 32 (16.6) n (%) | Back pain TEAE, grade ≥3 (Overall): 3 (1.6) n (%) | Blood and lymphatic system disorders TEAE, any grade (Overall): 50 (25.9) n (%) | Blood and lymphatic system disorders TEAE, grade ≥3 (Overall): 20 (10.4) n (%) | Blood creatinine increased TEAE, any grade (Overall): 21 (10.9) n (%) | Blood creatinine increased TEAE, grade ≥3 (Overall): 0 n (%) | Cardiac disorders TEAE, any grade (Overall): 24 (12.4) n (%) | Cardiac disorders TEAE, grade ≥3 (Overall): 10 (5.2) n (%) | Constipation TEAE, any grade (Overall): 66 (34.2) n (%) | Constipation TEAE, grade ≥3 (Overall): 0 n (%) | Constipation TRAE, any grade (Overall): 22 (11.4) n (%) | Constipation TRAE, grade ≥3 (Overall): 0 n (%) | Cough TEAE, any grade (Overall): 34 (17.6) n (%) | Cough TEAE, grade ≥3 (Overall): 0 n (%) | Decreased appetite TEAE, any grade (Overall): 74 (38.3) n (%) | Decreased appetite TEAE, grade ≥3 (Overall): 4 (2.1) n (%) | Decreased appetite TRAE, any grade (Overall): 51 (26.4) n (%) | Decreased appetite TRAE, grade ≥3 (Overall): 2 (1.0) n (%) | Dehydration TEAE, any grade (Overall): 36 (18.7) n (%) | Dehydration TEAE, grade ≥3 (Overall): 5 (2.6) n (%) | Diarrhea TEAE, any grade (Overall): 116 (60.1) n (%) | Diarrhea TEAE, grade ≥3 (Overall): 25 (13.0) n (%) | Diarrhea TRAE, any grade (Overall): 98 (50.8) n (%) | Diarrhea TRAE, grade ≥3 (Overall): 20 (10.4) n (%) | Dizziness TEAE, any grade (Overall): 34 (17.6) n (%) | Dizziness TEAE, grade ≥3 (Overall): 0 n (%) | Dizziness TRAE, any grade (Overall): 20 (10.4) n (%) | Dizziness TRAE, grade ≥3 (Overall): 0 n (%) | Dry mouth TEAE, any grade (Overall): 28 (14.5) n (%) | Dry mouth TEAE, grade ≥3 (Overall): 0 n (%) | Dry mouth TRAE, any grade (Overall): 21 (10.9) n (%) | Dry mouth TRAE, grade ≥3 (Overall): 0 n (%) | Dysphonia TEAE, any grade (Overall): 47 (24.4) n (%) | Dysphonia TEAE, grade ≥3 (Overall): 0 n (%) | Dysphonia TRAE, any grade (Overall): 27 (14.0) n (%) | Dysphonia TRAE, grade ≥3 (Overall): 0 n (%) | Dyspnea TEAE, any grade (Overall): 31 (16.1) n (%) | Dyspnea TEAE, grade ≥3 (Overall): 6 (3.1) n (%) | Edema peripheral TEAE, any grade (Overall): 29 (15.0) n (%) | Edema peripheral TEAE, grade ≥3 (Overall): 1 (0.5) n (%) | Endocrine disorders TEAE, any grade (Overall): 53 (27.5) n (%) | Endocrine disorders TEAE, grade ≥3 (Overall): 2 (1.0) n (%) | Fatigue TEAE, any grade (Overall): 98 (50.8) n (%) | Fatigue TEAE, grade ≥3 (Overall): 19 (9.8) n (%) | Fatigue TRAE, any grade (Overall): 83 (43.0) n (%) | Fatigue TRAE, grade ≥3 (Overall): 14 (7.3) n (%) | Gastrointestinal disorders TEAE, any grade (Overall): 167 (86.5) n (%) | Gastrointestinal disorders TEAE, grade ≥3 (Overall): 49 (25.4) n (%) | General disorders and administration site conditions TEAE, any grade (Overall): 131 (67.9) n (%) | General disorders and administration site conditions TEAE, grade ≥3 (Overall): 23 (11.9) n (%) | Headache TEAE, any grade (Overall): 40 (20.7) n (%) | Headache TEAE, grade ≥3 (Overall): 2 (1.0) n (%) | Hypertension TEAE, any grade (Overall): 88 (45.6) n (%) | Hypertension TEAE, grade ≥3 (Overall): 47 (24.4) n (%) | Hypertension TRAE, any grade (Overall): 78 (40.4) n (%) | Hypertension TRAE, grade ≥3 (Overall): 40 (20.7) n (%) | Hypokalemia TEAE, any grade (Overall): 20 (10.4) n (%) | Hypokalemia TEAE, grade ≥3 (Overall): 3 (1.6) n (%) | Hypomagnesemia TEAE, any grade (Overall): 24 (12.4) n (%) | Hypomagnesemia TEAE, grade ≥3 (Overall): 0 n (%) | Hyponatremia TEAE, any grade (Overall): 25 (13.0) n (%) | Hyponatremia TEAE, grade ≥3 (Overall): 11 (5.7) n (%) | Hypophosphatemia TEAE, any grade (Overall): 20 (10.4) n (%) | Hypophosphatemia TEAE, grade ≥3 (Overall): 11 (5.7) n (%) | Hypothyroidism TEAE, any grade (Overall): 47 (24.4) n (%) | Hypothyroidism TEAE, grade ≥3 (Overall): 0 n (%) | Hypothyroidism TRAE, any grade (Overall): 33 (17.1) n (%) | Hypothyroidism TRAE, grade ≥3 (Overall): 0 n (%) | Infections and infestations TEAE, any grade (Overall): 74 (38.3) n (%) | Infections and infestations TEAE, grade ≥3 (Overall): 24 (12.4) n (%) | Injury, poisoning, procedural complications TEAE, any grade (Overall): 35 (18.1) n (%) | Injury, poisoning, procedural complications TEAE, grade ≥3 (Overall): 2 (1.0) n (%) | Investigations TEAE, any grade (Overall): 116 (60.1) n (%) | Investigations TEAE, grade ≥3 (Overall): 36 (18.7) n (%) | Lipase increased TEAE, any grade (Overall): 26 (13.5) n (%) | Lipase increased TEAE, grade ≥3 (Overall): 14 (7.3) n (%) | Metabolism and nutrition disorders TEAE, any grade (Overall): 130 (67.4) n (%) | Metabolism and nutrition disorders TEAE, grade ≥3 (Overall): 41 (21.2) n (%) | Musculoskeletal and connective tissue disorders TEAE, any grade (Overall): 103 (53.4) n (%) | Musculoskeletal and connective tissue disorders TEAE, grade ≥3 (Overall): 10 (5.2) n (%) | Nausea TEAE, any grade (Overall): 81 (42.0) n (%) | Nausea TEAE, grade ≥3 (Overall): 8 (4.1) n (%) | Nausea TRAE, any grade (Overall): 58 (30.1) n (%) | Nausea TRAE, grade ≥3 (Overall): 5 (2.6) n (%) | Neoplasms benign, malignant, unspecified TEAE, any grade (Overall): 24 (12.4) n (%) | Neoplasms benign, malignant, unspecified TEAE, grade ≥3 (Overall): 19 (9.8) n (%) | Nervous system disorders TEAE, any grade (Overall): 92 (47.7) n (%) | Nervous system disorders TEAE, grade ≥3 (Overall): 8 (4.1) n (%) | PPE syndrome TEAE, any grade (Overall): 41 (21.2) n (%) | PPE syndrome TEAE, grade ≥3 (Overall): 11 (5.7) n (%) | PPE syndrome TRAE, any grade (Overall): 39 (20.2) n (%) | PPE syndrome TRAE, grade ≥3 (Overall): 11 (5.7) n (%) | Pain in extremity TEAE, any grade (Overall): 21 (10.9) n (%) | Pain in extremity TEAE, grade ≥3 (Overall): 2 (1.0) n (%) | Proteinuria TEAE, any grade (Overall): 26 (13.5) n (%) | Proteinuria TEAE, grade ≥3 (Overall): 2 (1.0) n (%) | Proteinuria TRAE, any grade (Overall): 22 (11.4) n (%) | Proteinuria TRAE, grade ≥3 (Overall): 2 (1.0) n (%) | Psychiatric disorders TEAE, any grade (Overall): 39 (20.2) n (%) | Psychiatric disorders TEAE, grade ≥3 (Overall): 4 (2.1) n (%) | Rash TEAE, any grade (Overall): 26 (13.5) n (%) | Rash TEAE, grade ≥3 (Overall): 2 (1.0) n (%) | Rash TRAE, any grade (Overall): 21 (10.9) n (%) | Rash TRAE, grade ≥3 (Overall): 2 (1.0) n (%) | Renal and urinary disorders TEAE, any grade (Overall): 51 (26.4) n (%) | Renal and urinary disorders TEAE, grade ≥3 (Overall): 6 (3.1) n (%) | Respiratory, thoracic and mediastinal disorders TEAE, any grade (Overall): 121 (62.7) n (%) | Respiratory, thoracic and mediastinal disorders TEAE, grade ≥3 (Overall): 21 (10.9) n (%) | Serious TEAE (Overall): 79 (40.9) n (%) | Serious TRAE (Overall): 30 (15.5) n (%) | Skin and subcutaneous tissue disorders TEAE, any grade (Overall): 109 (56.5) n (%) | Skin and subcutaneous tissue disorders TEAE, grade ≥3 (Overall): 15 (7.8) n (%) | Stomatitis TEAE, any grade (Overall): 29 (15.0) n (%) | Stomatitis TEAE, grade ≥3 (Overall): 2 (1.0) n (%) | Stomatitis TRAE, any grade (Overall): 28 (14.5) n (%) | Stomatitis TRAE, grade ≥3 (Overall): 2 (1.0) n (%) | TEAE grade ≥3 (Overall): 145 (75.1) n (%) | TEAE leading to death (Overall): 21 (10.9) n (%) | TEAE leading to discontinuation (Overall): 41 (21.2) n (%) | TEAE leading to treatment modification (Overall): 133 (68.9) n (%) | TRAE grade ≥3 (Overall): 103 (53.4) n (%) | TRAE leading to death (Overall): 1 (0.5) n (%) | TRAE leading to discontinuation (Overall): 26 (13.5) n (%) | TRAE leading to treatment modification (Overall): 120 (62.2) n (%) | UTI TEAE, any grade (Overall): 23 (11.9) n (%) | UTI TEAE, grade ≥3 (Overall): 6 (3.1) n (%) | Vascular disorders TEAE, any grade (Overall): 106 (54.9) n (%) | Vascular disorders TEAE, grade ≥3 (Overall): 50 (25.9) n (%) | Vomiting TEAE, any grade (Overall): 61 (31.6) n (%) | Vomiting TEAE, grade ≥3 (Overall): 11 (5.7) n (%) | Vomiting TRAE, any grade (Overall): 46 (23.8) n (%) | Vomiting TRAE, grade ≥3 (Overall): 5 (2.6) n (%) | Weight decreased TEAE, any grade (Overall): 42 (21.8) n (%) | Weight decreased TEAE, grade ≥3 (Overall): 3 (1.6) n (%) | Weight decreased TRAE, any grade (Overall): 27 (14.0) n (%) | Weight decreased TRAE, grade ≥3 (Overall): 2 (1.0) n (%) | ALT increased TEAE, any grade (Phase 1): 4 (12.5) n (%) | ALT increased TEAE, grade ≥3 (Phase 1): 1 (3.1) n (%) | ALT increased TRAE, any grade (Phase 1): 2 (6.3) n (%) | ALT increased TRAE, grade ≥3 (Phase 1): 0 n (%) | AST increased TEAE, any grade (Phase 1): 5 (15.6) n (%) | AST increased TEAE, grade ≥3 (Phase 1): 1 (3.1) n (%) | AST increased TRAE, any grade (Phase 1): 2 (6.3) n (%) | AST increased TRAE, grade ≥3 (Phase 1): 0 n (%) | Abdominal pain TEAE, any grade (Phase 1): 4 (12.5) n (%) | Abdominal pain TEAE, grade ≥3 (Phase 1): 1 (3.1) n (%)

From PMC9395446, “First-in-human phase 1/1b study to evaluate sitravatinib in patients with advanced solid tumors” (Investigational New Drugs, 2022)
